Source: US20250000834A1, “COMPOSITIONS AND METHODS FOR TARGETING GPCR FOR THE PREVENTION AND TREATMENT OF PAIN” (Duke University, priority 2021, published 2025)
Values belong to the compound of their own block, whether it stands above or below them. Non-standard residues stand in square brackets, D forms with d. Residues, ends and D or L forms follow the SMILES beside them.

Experiments:
hGPR37L1 [1] = molecular target: T1, hGPR37L1 (Homo sapiens, UniProt O60883); assay: Lipid-coated bead pull-down assay with hGPR37L1-expressing cells; format: binding; parameters: expressed in transfected cells; host or cells: HEK293 Flp-In cells; settings: Western blot
T1 sequence (O60883 26-481): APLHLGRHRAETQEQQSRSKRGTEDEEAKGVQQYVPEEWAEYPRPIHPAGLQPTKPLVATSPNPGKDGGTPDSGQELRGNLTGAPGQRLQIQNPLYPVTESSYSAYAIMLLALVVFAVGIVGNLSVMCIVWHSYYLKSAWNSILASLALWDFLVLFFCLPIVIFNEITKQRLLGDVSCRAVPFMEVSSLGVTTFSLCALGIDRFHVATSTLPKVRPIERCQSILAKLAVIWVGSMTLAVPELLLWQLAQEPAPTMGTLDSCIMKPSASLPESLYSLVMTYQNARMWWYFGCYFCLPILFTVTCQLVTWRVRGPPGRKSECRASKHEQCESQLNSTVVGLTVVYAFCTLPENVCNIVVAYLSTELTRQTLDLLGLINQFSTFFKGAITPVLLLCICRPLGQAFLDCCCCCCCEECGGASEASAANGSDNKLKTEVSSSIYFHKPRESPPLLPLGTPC
Procedure: Lipid pull-down assay: Isolated membrane proteins were pre-adsorbed to uncoated control agarose beads (Vector Laboratories, Burlingame, CA); the unbound fraction was collected and incubated 24 hrs at 4° C. with lipid-coated agarose beads (S. Bang et al., GPR37 regulates macrophage phagocytosis and resolution of inflammatory pain. J Clin Invest 128, 3568-3582 (2018)). After extensive washing, bound proteins were eluted from the lipid-coated beads, suspended in Laemmli buffer containing 2% SDS (w/v) and 0.3-M β-mercaptoethanol (Sigma-Aldrich, St. Louis, MO), and heated 5 min at 95° C. to dissolve proteins before separation on 4-20% polyacrylamide/SDS gels as outlined above. The lysate proteins were detected by western blot.
Western blot: GPR37L1 proteins were isolated from transfected cells, lipid pull-down beads, and mouse DRG. The cells were placed on ice, washed with ice-cold phosphate-buffered saline (PBS), and harvested with ice-cold RIPA buffer (Sigma-Aldrich, St. Louis, MO) with Protease Inhibitor Cocktail Tablet (pH 7.4) (Roche Diagnostics, Indianapolis, IN). The cell lysates were centrifugated for removing insoluble debris and were calculated by BCA assay for detection of protein level, and the supernatant was mixed with 4× Laemmli buffer (Bio-Rad, Hercules, CA) and boiling. Protein samples were […] on 4-15% gradient SDS-PAGE gel (Bio-Rad, Hercules, CA) and blotted on PVDF membrane (Bio-Rad, Hercules, CA). Ponceau S staining was used for the detection of total proteins. The primary antibody was incubated with PBS+1% BSA at 4° C. overnight. We used the following primary antibodies: anti-GPR37L1 antibody (Bioss (Woburn, MA), Rabbit, 1:1000, #bs-15390R); anti-GAPDH antibody (Proteintech (Rosemont, IL), mouse, 1:2000, #60004); and anti-flag antibody (Cell Signaling Technologies (Danvers, MA), Rabbit, 1:1000, #14793). Blots were further incubated with an […] secondary anti-rabbit antibody (Jackson ImmunoResearch Laboratories (West Grove, PA), donkey, 1:5000), developed in ECL solution (Pierce Biotechnology, Appleton, WI)), and visualized in ChemiDoc XRS (Bio-Rad, Hercules, CA). Protein signal intensity was quantified by Image J software (NIH).
Next, a lipid-coated bead pull-down assay with hGPR37L1-expressing cells was used to confirm whether MaR1 would interact with GPR37L1 protein selectively. […] The right molecule size of GPR37L1 (˜50 kDa) was also validated by the anti-FLAG antibody (data not shown; see U.S. Prov. No. 63/270,198, FIG. 3E).

hGPR37L1 [2] = molecular target: T1, hGPR37L1; assay: Beta-arrestin assay (PathHunter hGPR37L1 CHO-K1); format: cell-based; settings: hGPR37L1 ChoK1 cells, n=6; for β-arrestin signaling: 0.1 nM to 100 nM; for EC50: read-out: EC50 of β-arrestin response
Procedure: Beta-arrestin assay: To screen for GPR37L1 ligands, the PathHunter® eXpress GPR37L1 CHO-K1 kit was purchased from Eurofins Discoveryone™ (DiscoverX Solutions for Drug Discovery, Fremont, CA; Cat #93-0378E2ACP1M). CHO-K1 cells express human GPR37L1 and were grown in 96-well plates for 48 hours. Lipid compounds were incubated with the ChoK1 cells for 1 hour at 37° C., and GPR37L1 activation was determined by measuring chemiluminescence using the beta-arrestin 2 (β-arrestin) detection kit (DiscoverX Solutions for Drug Discovery, Fremont, CA). The luminescent activity was measured using an Infinite F200 Pro Illuminometer (Tecan Trading AG, Switzerland).
Eight different concentrations of compounds ranging from 0.1 nM to 100 nM were tested.

[3] = test system: neuron-glia mixed cultures from DRG; assay: IL-1β release in SGC-neuron co-cultures from DRG (ELISA); format: cell-based, mouse; settings: 1 μM for 24 h
Procedure: SGC and neuron co-culture: DRG were collected from wild-type (WT) or knock-out (KO) mice (8 weeks male) and incubated in 1 mg/ml Collagenase/Dispase (Roche Diagnostics, Madison, WI, USA) at 37° C. for 60 min, with agitation at 100 revolutions per minute (RPM) and then followed by incubation in 0.05% trypsin/EDTA for 10 min. The digestion enzymes were prepared in Dulbecco's modified Eagle medium/F12 with GlutaMAX (ThermoFisher, Waltham, MA). After incubation of 0.1% trypsin inhibitor and centrifugation (300 G), the cell pellet was gently triturated in a neurobasal medium containing […]. Dissociated DRG cells were seeded on non-coated culture dishes for 4 hrs. SGC and neurons were included for co-culture by hand-shaking of the culture flasks gently for 5 to 10 min and then resuspended by replacing with a new neurobasal medium. The attached glial-like cells were cultured in the DMEM/F12 medium containing 10% fetal bovine serum and 1% streptomycin/penicillin to promote cell growth and inhibition of differentiation. After 2 to 6 days, the glial-like cells were differentiated by application of the serum-free neural basal medium. […]

[4] = test system: Kir4.1 potassium channels in SGCs; assay: Patch-clamp recordings of K+ currents in SGCs of whole-mount DRG; format: cell-based, mouse
Procedure: Patch-clamp recordings in SGCs of whole-mount DRG: Under urethane anesthesia, mice were rapidly euthanized, followed by careful isolation of lumbar DRGs placed in the oxygenated artificial cerebral spinal fluid (aCSF). DRGs were briefly digested (20 min) using an enzymatic mixture consisting of collagenase A (1 mg/mL) and 0.32 mL Trypsin (0.25% original solution). Intact DRG were then incubated in aCSF oxygenated with 95% O2 and 5% CO2 at 34° C. Following incubation, DRG were transferred to a recording chamber. Isolated DRGs were transferred to a recording chamber continuously perfused (˜3 ml/min) with aCSF. SGCs in whole mouse DRGs could be visualized using a 40× water-immersion objective on an Olympus BX51WI microscope (Olympus Corp., Shinjuku, Japan). The round or fusiform-shaped cell bodies of SGCs were small (<10 μm) but visible near the edges of DRG neurons. Patch pipettes (Chase Scientific Glass Inc., Ramsey, MN) were pulled and filled with a pipette solution containing: 126 mM potassium gluconate, 10 mM NaCl, 1 mM MgCl2, 10 mM EGTA, 2 mM Na-ATP, and 0.1 mM Mg-GTP, adjusted to pH 7.3 with KOH. The resistance of pipettes was 10-12 MΩ. A Whole-cell patch-clamp configuration was made on SGCs at room temperature using a Multiclamp 700B amplifier (Axon Instruments, Union City, CA). Under voltage clamp, at a holding potential of −80 mV, inward or outward currents are triggered by voltage steps of −160 to +40 mV, with 20 mV increment in 200 ms (H. Zhang et al., Altered functional properties of satellite glial cells in compressed spinal ganglia. Glia 57, 1588-1599 (2009)). To isolate inwardly rectifying potassium current (Kir), potassium currents from the same cells were recorded in the absence and presence of 100 μM extracellular barium, which blocks the Kir4.1 channel (C. A. Doupnik, et al, The inward rectifier potassium channel family. Curr Opin Neurobiol 5, 268-277 (1995); X. Tong et al., Astrocyte Kir4.1 ion channel deficits contribute to neuronal dysfunction in Huntington's disease model mice. Nat Neurosci 17, 694-703 (2014)). The Kir4.1 currents were obtained by digitally subtracting those currents in the absence and presence of barium.
Kir4.1 potassium channels are the predominant potassium channels in SGCs and are chiefly responsible for the potassium currents in SGCs. Dysregulation of SGC Kir4.1 contributes to the pathogenesis of pain (M. Hanani, D. C. Spray, Emerging importance of satellite glia in nervous system function and dysfunction. Nat Rev Neurosci 21, 485-498 (2020)). SGC K^+ currents were recorded by conducting patch-clamp recordings in SGCs in whole-mount DRG preparation (data not shown; see U.S. Prov. No. 63/270,198, FIG. 7A), collected from WT mice, Gpr37l1^+/+ mice, and Gpr37l1^+/− mutant mice (FIG. 11A parts A-C).

- GPR37L1 binding in lipid-coated bead pull-down extracts (hGPR37L1 [1]): not binding
Compound: CC/C=C\C/C=C\C/C=C\C/C=C\C/C=C\C/C=C\CCC(=O)O [DHA, reference compound]

- β-arrestin signaling (hGPR37L1 [2]): 1.8 fold increase
- EC50 (hGPR37L1 [2]): 1.74 nM
- GPR37L1 binding in lipid-coated bead pull-down extracts (hGPR37L1 [1]): some weak binding
Compound: CC/C=C\C[C@H](O)\C=C/C=C/C=C/[C@H](O)C/C=C\C/C=C\CCC(=O)O [NPD1, Neuroprotectin D1]

Compound: CC(=O)O[C@H]1C(=O)[C@@]2(C)[C@H]([C@H](OC(=O)c3ccccc3)[C@]3(O)C[C@H](OC(=O)[C@H](O)[C@@H](NC(=O)c4ccccc4)c4ccccc4)C(C)=C1C3(C)C)[C@]1(OC(C)=O)CO[C@@H]1C[C@@H]2O [PTX, paclitaxel, reference compound]
- IL-1β secretion in culture medium [3]: marked increase
- effect on K+ currents in SGCs ([4]; 1 μM, 60 min, WT-DRG): substantial reduction

- GPR37L1 binding in lipid-coated bead pull-down extracts (hGPR37L1 [1]): not binding
Compound: CC/C=C\C[C@H](O)/C=C/C=C\C=C\C=C\[C@@H](O)[C@@H](O)C/C=C\CCC(=O)O [RvD1]

- GPR37L1 binding in lipid-coated bead pull-down extracts (hGPR37L1 [1]): not binding
Compound: CC/C=C\C[C@H](O)[C@H](O)/C=C/C=C/C=C\C=C\[C@@H](O)C/C=C\CCC(=O)O [RvD2]

- β-arrestin signaling (hGPR37L1 [2]): 3.71 fold increase
- EC50 (hGPR37L1 [2]): 9.8 nM
Compound: CC[C@H](C)[C@H](NC(=O)[C@H](CCC(=O)O)NC(=O)[C@H](CCC(=O)O)NC(=O)[C@@H](NC(=O)[C@H](C)NC(=O)[C@H](CC(N)=O)NC(=O)[C@H](CC(N)=O)NC(=O)[C@H](CC(=O)O)NC(=O)[C@@H](NC(=O)[C@H](CC(C)C)NC(=O)[C@@H](C)NC(=O)[C@@H](N)[C@@H](C)O)[C@@H](C)CC)[C@@H](C)O)C(=O)N[C@@H](CC(C)C)C(=O)N[C@@H](Cc1ccc(O)cc1)C(=O)O [TX14, reference compound] (H-T[dA]LIDNNATEEILY-OH; N-terminus and C-terminus assumed)

Compound: Barium [reference compound]
- effect on total K+ currents in SGCs ([4]; 100 μM): largely blocked
